# Experimental data taken from PMC7806714, “Statins for the prevention of proliferative vitreoretinopathy: cellular responses in cultured cells and clinical statin concentrations in the vitreous” (Scientific Reports, 2021).
# Where two headings read alike, the source gives them in different places.
# Columns and labels:
# [1] = UPLC-MS/MS statin and metabolite concentrations in vitreous of vitrectomy patients on oral statins; type: in vivo, human
# Method: The study was conducted according to the tenets of the Declaration of Helsinki, and was approved by the Institutional Review Board and Ethical committee of Helsinki University Central Hospital. Twenty patients were enrolled; fifteen with per oral statin treatment and five controls. Signed informed consent was obtained from each participant prior to the vitreous sampling. Confidentiality of the patient records was maintained when the clinical data were entered into a computer-based standardized data entry for analysis. Sixteen patients were being operated due to PDR; of these, five patients had also Tractional Retinal Detachment (TRD); two patients were operated due to RRD, one due to age-related epiretinal fibrosis (pucker), and one due to a macular hole (Supplementary Table S2). […] All vitrectomies were performed by the recruiting vitreoretinal surgeon (SL). […] The samples were collected by manual aspiration into a syringe via the vitrectomy with the cutting function activated. Sample aliquots were transferred into sterile 1.5 mL microcentrifuge tubes (Freemont, CA, USA) and immediately frozen and stored at − 70 °C until laboratory analysis. […] All reference compounds and internal standards were purchased from Toronto Research Chemicals (Toronto, Canada). Samples (100 µl) were divided into two aliquots and kept at − 80 °C prior to analysis. […] Homogenizer blocks were pre-cooled by placing them at − 20 °C. […] Supernatants (120 µl) were pipetted into analytical vials and the concentrations of the statins were measured with Ultra-high Pressure Liquid Chromatography—tandem Mass Spectrometry (UPLC-MS/MS) technique. The same pre-treatment protocol was used to prepare calibration curves and quality control samples but homogenized and filtered porcine vitreous were used as a matrix instead of human vitreous. A minimum of six calibration curve concentrations was used for quantitation of the compounds. Two parallel calibration curve sets included all eleven analytes and four deuterated internal standards. Three quality control samples in three parallel sets were used to validate the method. The linear range varied from approximately 0.004 to 10 ng/mL depending on the analyte. Limit of quantitation was set to the smallest calibration curve point of each drug. Each sample was analysed twice and the average of these values was designated as the concentration of the sample. […] For rosuvastatin, two metabolites were analysed: rosuvastatin lactone and N-desmethyl rosuvastatin lactone. Rosuvastatin D6 was used as an internal standard. The parent drug, its metabolites and internal standard were analysed from the same sample in each case. Liquid chromatography separation was carried out using a Waters Acquity UPLC instrument (Waters, MA, USA) coupled with Waters HSS T3 C18 (2.1 × 100 mm, 1.8 µm) column at 40 °C. The mobile phase consisted of 0.1% formic acid in ultrapure water (A) and 100% of LC–MS grade acetonitrile (B). […] The flow rate was set to 0.3 mL/min and injection volume 1.5 µl. After every three samples, a solvent blank was run to control for any carry over. Mass spectrometry measurements were carried out using a Waters Xevo Triple Quadruple mass spectrometer (TQ-S) equipped with an ESI source. […] The source parameters were as follows: Capillary voltage 2.8 kV, source temperature 150 °C and desolvation temperature 500 °C. Nitrogen (Aga, Helsinki, Finland) was used as a desolvation gas (800 l/h), a cone gas (150 l/h) and a nebulizer gas (7 bar). Argon (Aga, Helsinki, Finland) was used as a collision gas (0.15 mL/min). The Multiple Reaction Monitoring (MRM) mode was used for quantification. Precursor and fragment ions, as well as other optimized parameters are listed in Supplementary Table S3.
# [2] = plasma, cited from earlier work
# [3] = free fraction of drug in plasma; ref summary of product characteristics document; cited from earlier work
# ARPE-19 cells = test: MTT cell viability assay; type: cell-based, human
# Method: (§1) Cell viability was assessed by determining the amount of LDH enzyme from culture media using a commercial kit (Promega Corporation, USA) according to the manufacturer’s protocol. This assay provides information about the integrity of the plasma membranes of the cells (high LDH levels meaning cell damage). In addition, the cell viability was examined with MTT assay, as described previously. In viable cells, the mitochondrial succinate dehydrogenase enzyme can metabolize the MTT dye into formazan that absorbs light at the 550 nm wavelength.
# MTT cell viability assay = type: cell-based, human; settings: human, ARPE-19 cells; dissolved in DMSO; read-out: Cell viability (MTT) compared to DMSO control
# Method: as §1
# IL-8 = test: ELISA of LPS-induced IL-8 release from ARPE-19 cells; settings: 5 µM, 24 h prior to LPS
# MCP-1 = test: ELISA of LPS-induced MCP-1 release from ARPE-19 cells
# IL-6 = test: ELISA of LPS-induced IL-6 release from ARPE-19 cells
# [4] = Calculated average steady-state plasma (Eq. 1) and expected vitreal concentrations (Eq. 3); set-up: species or system human; settings: for Calc. Cv: expected vitreal, Eq. 3; for Css,av: plasma, Eq. 1
# Method: The concentrations of statins and their metabolites in the vitreous were analysed (see above) and expressed as ng/mL concentrations. These concentrations were compared to published statin concentrations in plasma. […] Maximum concentrations in plasma and the area under the concentration vs time curve values were collected. The expected average statin concentrations in plasma during multiple dose treatment were calculated for the doses that the patients received in our study (Eq. 1):1 Css,av=AUCsingledose/τ where τ is the time interval between doses. The drug concentrations in plasma (C, Cmax, Css, av) include both unbound (Cu) and protein-bound drug. The values for protein binding were obtained from the summary of drug product characteristics for each statin. The free fraction of statin in plasma was calculated based on Eq. (2):2 fu=CuC
# The expected drug concentrations in the patients’ vitreous samples were calculated according to Eq. (3)3 Cv=fu×Css,av
# Equation (3) assumes that the vitreal drug concentrations equilibrate with the unbound drug concentrations in plasma, because only free drug is expected to cross the blood-ocular barriers.
# [5] = oral 20 mg/d, patients' vitreous
# [6] = 10 mg/d single oral dose, n=12, China, ref [30]
# [7] = 10 mg/d single oral dose, n=18, Germany, ref [31]
# [8] = 20 mg/d single oral dose, n=6, UK, ref [32]
# [9] = 20 mg/d single oral dose, n=12, Chinese, ref [30]
# [10] = 48 h exposure prior to LPS, 1.5, 5, 10 µM tested
smiles,measurement,setting,value
CC(C)c1nc(N(C)S(C)(=O)=O)nc(-c2ccc(F)cc2)c1/C=C/[C@@H](O)C[C@@H](O)CC(=O)O [Rosuvastatin],vitreous concentration range,"[1]; 10–20 mg daily, oral",52 to 316 pg/mL
same,Measured Cv Average,"[1]; oral 10 mg/d, patients' vitreous",0.055 ng/mL
same,Measured Cv Range (lower),[1]; [5],0.052 ng/mL
same,Measured Cv Range (upper),[1]; [5],0.316 ng/mL
same,Concentration in vitreous sample,"[1]; patient 359, Pucker, diabetes, oral rosuvastatin 20 mg",0.056 ng/mL
same,Concentration in vitreous sample,"[1]; patient 371, PDR, dose 0* (control without reported statin treatment)",0.241 ng/mL
same,Concentration in vitreous sample,"[1]; patient 383, PDR, oral rosuvastatin 10 mg",0.055 ng/mL
same,Concentration in vitreous sample,"[1]; patient 397, PDR, oral rosuvastatin 20 mg",0.168 ng/mL
same,Concentration in vitreous sample,"[1]; patient 412, PDR, oral rosuvastatin 20 mg",0.316 ng/mL
same,Concentration in vitreous sample,"[1]; patient 428, MH, diabetes, not DR, oral rosuvastatin 20 mg",0.052 ng/mL
same,AUC0−∞,[2]; [6],103 ng·h/mL
same,Cmax,[2]; [6],10.8 ng/mL
same,AUC0−∞,[2]; [7],48.4 ng·h/mL
same,Cmax,[2]; [7],4.5 ng/mL
same,AUC0−∞,[2]; [8],63.1 ng·h/mL
same,Cmax,[2]; [8],6.1 ng/mL
same,AUC0−∞,[2]; [9],177 ng·h/mL
same,Cmax,[2]; [9],19.2 ng/mL
same,fu,[3],0.12
same,Cellular toxicity in MTT test,"ARPE-19 cells; dissolved in DMSO, 24 h or 48 h, with or without LPS",well tolerated
same,Cell viability in MTT assay,ARPE-19 cells; dissolved in water,did not compromise cell viability
same,viability,MTT cell viability assay,88%
same,LPS-induced release of IL-8,IL-8,reduced
same,LPS-induced release of MCP-1,"MCP-1; 5 µM, 24 h prior to LPS",decreased
same,LPS-induced release of MCP-1,MCP-1; [10],decreasing trends
same,LPS-induced release of IL-6,"IL-6; 5 µM, 24 h prior to LPS (rosuvastatin: DMSO and water)",reduced
same,LPS-induced release of IL-6,"IL-6; 10 µM, 24 h prior to LPS (rosuvastatin: DMSO and water)",reduced
same,LPS-induced release of IL-6,IL-6; [10],decreasing trends
same,Calc. Cv,"[4]; 10 mg/d, China study [30]",0.513 ng/mL
same,Calc. Cv,"[4]; 10 mg/d, Germany study [31]",0.242 ng/mL
same,Calc. Cv,"[4]; 20 mg/d, Chinese study [30]",0.883 ng/mL
same,Calc. Cv,"[4]; 20 mg/d, UK study [32]",0.314 ng/mL
same,"Css,av","[4]; 10 mg/d, China study [30]",4.27 ng/mL
same,"Css,av","[4]; 10 mg/d, Germany study [31]",2.02 ng/mL
same,"Css,av","[4]; 20 mg/d, Chinese study [30]",7.36 ng/mL
same,"Css,av","[4]; 20 mg/d, UK study [32]",2.62 ng/mL
